Reference: patent US9028831B2, “Markers for selecting personalized therapies for the treatment of cancer” (Fundació Institut de Recerca Hospital Universitari Vall …, priority 2009, dated 2015)
Entries after “also recorded” stand apart in the source; their conditions may differ. Where two headings read alike, the source gives them in different places.

Legend:
[1] = tested on: APTX knock-out cells DT40; experiment: Camptothecin-induced apoptosis in DT40 sub-line with APTX inactivated by homologous recombination; assay type: cell-based, Chicken; details: 15-25 nM, 72 hours, p<0.004
Method: (§1) Chicken parental B cell line DT40, a sub-line where ATPX was interrupted by means of homologous recombination and a derivative line where APTX was re-introduced in the knock-out cells were used (Abel I, et al., Nature 2006; 443: 713-6). Camptothecin-induced apoptosis was evaluated as has been previously described (Arango D, et al., Cancer Res 2001; 61: 4910-5; Arango D, et al., Br J Cancer 2003; 89: 1757-65). Briefly, 2.5×10^5 cells were seeded by triplicate in 6-well Falcon plates (Becton Dickinson) and were left to adhere for 24 hours before sucking out the medium and changing it with fresh medium containing 0, 15 or 25 nM camptothecin (Calbiochem, San Diego, Calif.). After 72 hours of treatment, both the adhered cells and those that floated were collected, they were washed two times with 2 ml of PBS, and resuspended in PBS containing 50 μg/ml propidium iodide, 0.1% sodium citrate, and 0.1% Triton X-100. The cells were stained overnight at 4° C. and the DNA content was analyzed using a cell separator (FACSCalibur; Becton Dickinson). The cell debris were discarded, and the proportion of cells with subdiploid DNA content typical of apoptotic cells was quantified using WinList 2.0 (Verity Software House, Inc.). All the experiments were carried out in triplicate, and the mean from three independent experiments is shown.

[2] = tested on: DT40 knock-out cells with APTX re-introduced; experiment: Camptothecin-induced apoptosis in DT40 knock-out cells with APTX re-introduced; assay type: cell-based, Chicken; details: APTX knock-out DT40 cells with APTX reintroduced, 15-25 nM, 72 hours
Method: as §1

parental cells DT40 = experiment: Camptothecin-induced apoptosis (subdiploid DNA content, propidium iodide FACS) in parental DT40 cells; assay type: cell-based, Chicken; details: 15-25 nM, 72 hours
Method: as §1

[3] = tested on: metastatic colorectal cancer; experiment: Response, time to progression and survival of patients receiving irinotecan-based chemotherapy, by tumor aprataxin level; assay type: in vivo, human; details: for time to progression (TTP) median: irinotecan-based treatment
Method: A total of 135 patients with metastatic colorectal cancer receiving irinotecan-based chemotherapy in Hospital Universitario Vall d'Hebron were included in the study. The response to the chemotherapeutic treatment was evaluated by means of computerized axial tomography (CAT) and a response was considered complete when the complete disappearance of metastatic lesions was observed. […] A lesion size reduction observed by CAT greater than 30% or an increase above 20% were considered as partial response or progressive disease, respectively. The study was conducted according to the research protocols approved by the Clinical Research Ethics Committee.
After the histological examination of tumor sample sections stained with hematoxylin and eosin and fixed with formalin embedded in paraffin, areas containing a large proportion of tumor cells were selected from the 135 patients. Cores of 1.2 mm of tumor samples from each patient were arranged in duplicate in a new paraffin block using an apparatus for preparing tissue matrices from Beecher Instruments (Beecher Instruments, Silver Spring, Md.).
4 μm unstained sections of the tissue microarrays were mounted on slides coated with 3-aminopropyl-triethoxy-silane (Sigma, St. Louis, Mo., USA). The sections were deparaffinized in xylene and rehydrated by means of a gradual series of alcohol and distilled water. The antigen was recovered with preheated 10 mM pH=6 citrate buffer for 20 minutes at 95° C. For the immunohistochemical analysis, the commercial Novolink polymer detection system was used according to the manufacturer's instructions (Novocastra Laboratories; Newcastle, UK). A rabbit anti-aprataxin polyclonal antibody made against the C-terminus end of human aprataxin was used at a dilution 1:100 (4° C. overnight; Aviva Systems Biology Corp.; San Diego, Calif.). The staining was viewed using a solution of 3,3′-diaminobenzidine (DAB) and the sections were counter stained in Mayer's hematoxylin, washed in water, dehydrated through a series of ethanol solution, clarified in xylene and mounted. The aprataxin levels were evaluated without knowing the clinical data. A semi-quantitative scale from 0 to 3 was used to measure the staining intensity. The absence of aprataxin staining was graded as 0 and the low, moderate and high aprataxin levels were graded as 1, 2, and 3, respectively (see FIG. 2A-D). The mean grading of samples in duplicate was used in subsequent analysis.
Survival curves were plotted using Kaplan and Meier method and the survival differences were evaluated using log-rank test. Cox's proportional hazard model was used to evaluate the simultaneous contribution of the following covariables in the overall survival: sex, age, histological grade, and tumor aprataxin levels. Fisher's exact test, Chi-squared test and Mann-Whitney test were used to evaluate the differences between clinicopathological parameters in patients with high and low aprataxin levels (see Table 1). It was considered that the p values of less than 0.05 indicated statistic significant.

SMILES	apoptosis induction / sensitization to CPT [1]	CPT resistant phenotype after reintroduction of APTX [2]	apoptosis induction (parental cells DT40)	Overall survival median [3] [months]	Overall survival median ([3]; Low aprataxin patients) [months]	Overall survival median ([3]; Total patients) [months]	hazard ratio, overall survival ([3]; high vs absent/low aprataxin, 95% CI 1.21-3.63, log-rank p=0.008)	hazard ratio, time to progression ([3]; moderate/high vs absent/low aprataxin, 95% CI 1.04-2.29, log-rank p=0.03)	time to progression (TTP) median ([3]; patients with absence or low aprataxin levels) [months]	time to progression (TTP) median ([3]; patients with moderate or high tumor aprataxin levels) [months]
CC[C@@]1(O)C(=O)OCc2c1cc1n(c2=O)Cc2cc3ccccc3nc2-1 [CPT, camptothecin]	significantly sensitized; also recorded: significantly increased apoptosis induction	completely reestablished the CPT resistant phenotype; also recorded: fully reestablished the resistant phenotype	modest apoptosis induction	–	–	–	–	–	–	–
CCc1c2c(nc3ccc(OC(=O)N4CCC(N5CCCCC5)CC4)cc13)-c1cc3c(c(=O)n1C2)COC(=O)[C@]3(O)CC [irinotecan]	–	–	–	19	36.7	26.3	2.1	1.5	9.2	5.5
